This is an account of results in patent US9963439B2, “Specific inhibitors of cytochrome P450 26 retinoic acid hydroxylase” (University of Washington Through its Center for …, priority 2013, dated 2018).

A word on the inhibition: it is the percentage by which the read-out fell short of the control. A word on the Km: it is the substrate concentration at which the rate is half of its maximum. As a reminder, the IC50 is the concentration that gives 50% inhibition.

In data set [1] the target is CYP26A1 (Homo sapiens (Human), UniProt O43174). Nature of the data set: CYP26A1 inhibition assay (9-cis-4-OH-RA formation from 9-cis-RA, recombinant microsomes). The format is biochemical. The following applies: for CYP26A1/CYP26B1: ratio of IC50 values, Table 2; for inhibition at 100 µM: read-out: Maximum inhibition of CYP26A1 observed.
CYP26A1, sequence (O43174 whole entry): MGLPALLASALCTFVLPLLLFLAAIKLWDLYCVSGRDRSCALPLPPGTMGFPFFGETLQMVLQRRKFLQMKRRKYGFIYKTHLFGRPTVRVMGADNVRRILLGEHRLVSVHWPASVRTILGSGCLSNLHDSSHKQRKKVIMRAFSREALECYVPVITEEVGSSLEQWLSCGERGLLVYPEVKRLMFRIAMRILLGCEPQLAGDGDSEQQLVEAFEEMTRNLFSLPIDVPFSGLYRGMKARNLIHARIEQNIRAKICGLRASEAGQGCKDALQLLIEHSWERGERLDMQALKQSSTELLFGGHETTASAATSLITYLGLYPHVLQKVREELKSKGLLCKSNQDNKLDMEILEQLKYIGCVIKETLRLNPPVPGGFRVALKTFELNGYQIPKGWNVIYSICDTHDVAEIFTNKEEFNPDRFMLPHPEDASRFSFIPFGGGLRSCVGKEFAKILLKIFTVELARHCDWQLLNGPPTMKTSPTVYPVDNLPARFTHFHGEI
Method: (§1) CYP26A1 and CYP26B1 were expressed in Sf9 cells and used as microsomal fractions supplemented with rat P450 reductase expressed in Escherichia coli as described previously. Incubations were performed with 5 pmol of P450 (CYP26A1 or CYP26B1) and 10 pmol of P450 reductase. The purified rat reductase was added to CYP26A1 or CYP26B1 microsomes, and allowed to incorporate into the membrane for 10 min at room temperature. […] Compounds were dissolved in methanol or dimethyl sulfoxide, and final solvent amounts in the incubations were kept at 1%. The samples were preincubated for 5 min at 37° C. before the reaction was initiated with NADPH (final concentration 1 mM). Incubation times were 1 minute and 5 minutes for CYP26A1 and CYP26B1 incubations respectively.
The formation of 9-cis-4-OH-RA metabolite was monitored and the percent activity remaining in the presence of the inhibitor in comparison to the solvent only control was quantified. For IC50 determination, 6-8 concentrations of the inhibitor spanning below and above the predicted IC50 were tested, and each concentration was analyzed in triplicate. The IC50 values were determined by nonlinear regression using GraphPad Prism, according to equation 1:
(§2) [formula] in which 100%*(Vi/V) is the percentage of activity remaining at a given inhibitor (I) concentration, (Vi/V)max*100% is the fitted maximum percentage activity remaining, and (Vi/V)min*100% is the minimum percentage activity remaining.
In data set [2] the target is T1, CYP26B1 (Homo sapiens (Human), UniProt Q9NR63). Nature of the data set: CYP26B1 inhibition assay (9-cis-4-OH-RA formation from 9-cis-RA, recombinant microsomes). It is filed as biochemical.
T1 sequence (Q9NR63 whole entry): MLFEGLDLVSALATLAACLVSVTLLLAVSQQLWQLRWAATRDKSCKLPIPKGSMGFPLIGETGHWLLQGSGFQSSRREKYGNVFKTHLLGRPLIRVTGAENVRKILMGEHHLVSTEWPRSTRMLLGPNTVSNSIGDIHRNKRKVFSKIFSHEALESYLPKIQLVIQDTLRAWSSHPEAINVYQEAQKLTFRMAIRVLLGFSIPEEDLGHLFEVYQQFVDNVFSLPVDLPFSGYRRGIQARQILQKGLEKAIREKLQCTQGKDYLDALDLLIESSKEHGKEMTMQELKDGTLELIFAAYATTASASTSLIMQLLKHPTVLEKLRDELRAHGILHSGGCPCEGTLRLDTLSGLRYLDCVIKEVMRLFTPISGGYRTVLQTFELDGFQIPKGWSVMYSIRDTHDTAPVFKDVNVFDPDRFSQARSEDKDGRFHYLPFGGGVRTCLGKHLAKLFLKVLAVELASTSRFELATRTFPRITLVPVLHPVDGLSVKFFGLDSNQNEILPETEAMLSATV
Method: as §1
The formation of 9-cis-4-OH-RA by CYP26B1 was measured by HPLC as described previously for CYP26A1. Product formation was linear from 1 minute to 8 minutes. […] Five minutes after reactions were initiated with NADPH the reactions were quenched with 5 ml of ethyl acetate, acitretin was added as an internal standard, samples extracted, evaporated to dryness, reconstituted in methanol and analyzed by HPLC as described previously. A standard curve of 9-cis-4-OH-RA was used to quantify product formation by analysis of the peak area of the primary metabolite on an HPLC.
Eighteen compounds were tested as potential inhibitors of CYP26A1 and CYP26B1. The formation of 9-cis-4-OH-RA metabolite was monitored and the percent activity remaining in the presence of the inhibitor in comparison to the solvent only control was quantified. For IC50 determination, 6-8 concentrations of the inhibitor spanning below and above the predicted IC50 were tested, and each concentration was analyzed in triplicate. The IC50 values were determined by nonlinear regression using GraphPad Prism, according to equation 1:
as §2
[formula] in which Kd is the affinity constant of the inhibitor, [I] is the concentration of inhibitor, [E] is the concentration of enzyme, and [EI] is the concentration of the enzyme-inhibitor complex.
Data set [3] addresses T1, CYP26B1. Nature of the data set: Michaelis-Menten kinetics of RA hydroxylation by CYP26B1.
Method: Incubations were performed with 5 pmol of P450 (CYP26A1 or CYP26B1) and 10 pmol of P450 reductase. The purified rat reductase was added to CYP26A1 or CYP26B1 microsomes, and allowed to incorporate into the membrane for 10 min at room temperature. […] Compounds were dissolved in methanol or dimethyl sulfoxide, and final solvent amounts in the incubations were kept at 1%. The samples were preincubated for 5 min at 37° C. before the reaction was initiated with NADPH (final concentration 1 mM). Incubation times were 1 minute and 5 minutes for CYP26A1 and CYP26B1 incubations respectively.
The formation of 9-cis-4-OH-RA by CYP26B1 was measured by HPLC as described previously for CYP26A1. Product formation was linear from 1 minute to 8 minutes. […] Five minutes after reactions were initiated with NADPH the reactions were quenched with 5 ml of ethyl acetate, acitretin was added as an internal standard, samples extracted, evaporated to dryness, reconstituted in methanol and analyzed by HPLC as described previously. A standard curve of 9-cis-4-OH-RA was used to quantify product formation by analysis of the peak area of the primary metabolite on an HPLC. The Michaelis-Menten equation was fit to the data using GraphPad Prism (GraphPad Software Inc., San Diego, Calif.), and the Km and Vmax values were obtained from this fit.
Data set [4] addresses CYP2C8 (Homo sapiens (Human), UniProt P10632). Nature of the data set: Inhibition of CYP2C8 in pooled human liver microsomes (paclitaxel probe). It is filed as in vitro ADME. For orientation: Liver microsomes are a subcellular fraction often used to study metabolism.
Method: (§3) Concentrations of organic solvents were kept to <1% (v/v). All incubations were pre-incubated at 37° C. for 5 minutes prior to addition of 1 mM NADPH (final concentration). Incubations were stopped after 5 (CYP3A4) or 15 minutes (CYP2C8 and CYP2C9) with one volume (v/v) of ice-cold acetonitrile containing 0.1 μM tolbutamide as an internal standard. All samples were vortexed and centrifuged prior to LC-MS/MS analysis.
(§4) Detection of 6-hydroxypaclitaxel, 4-hydroxydiclofenac or 1′-hydroxymidazolam was achieved using a Gemini C18 2.0×30 mm 5 column (Phenomenex, Torrance, Calif.). Gradient elution (flow rate=500 μL/min) carried out using a mobile phase system consisting of (A) 5 mM ammonium formate with 0.1% formic acid and (B) acetonitrile with 0.1% formic acid. HPLC flow was diverted from the MS/MS system for the first 20 seconds to remove any non-volatile salts. Generic MS parameters included the curtain gas (10 arbitrary units), CAD gas (medium), ionspray voltage (4500 V), source temperature (450° C.) and ion source gas 1 and gas 2 (40 arbitrary units, each). Interface heaters were kept on for all analytes. Probe substrate mass transitions were identical to previously published methods. Briefly, the LC-MS/MS system utilized was comprised of an Applied Biosystems 4000 Q-Trap equipped with an electrospray ionization source (Applied Biosystems, Foster City, Calif.). The MS/MS system was coupled to two LC-20AD pumps with an in-line CBM-20A controller and DGU-20A5 solvent degasser (shinadzu, Columbia, Md.) and a LEAP CTC HTS PAL autosampler equipped with a dual-solvent self-washing system (CTC Analytics, Carrboro, N.C.). An injection volume of 20 μL was used for all analyses. Standard curves and mass spectrometry data were fit using Analyst (version 1.4; Applied Biosystems, Foster City, Calif.).
Data set [5] has as its target CYP3A4 (Homo sapiens (Human), UniProt P08684). The experiment in a line: Inhibition of CYP3A4 in pooled human liver microsomes (midazolam probe). The format is in vitro ADME.
Method: as §3, §4
Data set [6] addresses CYP2C9 (Homo sapiens (Human), UniProt P11712). Nature of the data set: Inhibition of CYP2C9 in pooled human liver microsomes (diclofenac probe). The following applies: for IC50: read-out: CYP2C9 IC50 nM, diclofenac 5 μM; for IC50 / Inhibition of CYP2C9 (in words): pooled human liver microsomes.
Method: as §3, §4
For data set [7] the following is noted: animal models; cited from earlier work.
Data set [8] relates to cytochromes involved in the biosynthetic pathways of testicular, ovarian and adrenal steroids. The following applies: Berth-Jones 2000; Bruynseels 1990; cited from earlier work.
The mark [9] stands for this setting: Table 3, unit inferred, read-out: CYP26A1 (IC50).
Setting [10] is: Table 3, unit inferred, read-out: CYP2681 (CYP26B1, IC50).
Setting [11] is: Table 4, acidic compounds, unit inferred, read-out: CYP26A1 (IC50).
The mark [12] stands for this setting: Table 4, acidic compounds, unit inferred, read-out: CYP26B1 (IC50).
Where [13] appears, read: pooled human liver microsomes, paclitaxel 4 μM.

pIC50: −log10 of the molar value. Where two headings read alike, the source gives them in different places.

CYP2C9, sequence (P11712 whole entry): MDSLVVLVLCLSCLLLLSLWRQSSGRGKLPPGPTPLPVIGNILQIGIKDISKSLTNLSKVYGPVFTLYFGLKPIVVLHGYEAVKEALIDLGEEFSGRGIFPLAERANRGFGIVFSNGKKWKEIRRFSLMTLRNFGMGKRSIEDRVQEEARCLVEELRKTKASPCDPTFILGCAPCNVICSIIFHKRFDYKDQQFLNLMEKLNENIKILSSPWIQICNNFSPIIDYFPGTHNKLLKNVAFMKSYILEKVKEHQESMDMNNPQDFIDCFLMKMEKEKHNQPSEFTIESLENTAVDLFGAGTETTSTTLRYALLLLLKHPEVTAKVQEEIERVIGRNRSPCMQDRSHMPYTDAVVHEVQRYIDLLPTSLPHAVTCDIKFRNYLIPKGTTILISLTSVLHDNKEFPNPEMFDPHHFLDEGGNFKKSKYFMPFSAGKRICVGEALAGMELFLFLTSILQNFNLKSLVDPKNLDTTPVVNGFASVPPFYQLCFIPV
CYP2C8, sequence (P10632 whole entry): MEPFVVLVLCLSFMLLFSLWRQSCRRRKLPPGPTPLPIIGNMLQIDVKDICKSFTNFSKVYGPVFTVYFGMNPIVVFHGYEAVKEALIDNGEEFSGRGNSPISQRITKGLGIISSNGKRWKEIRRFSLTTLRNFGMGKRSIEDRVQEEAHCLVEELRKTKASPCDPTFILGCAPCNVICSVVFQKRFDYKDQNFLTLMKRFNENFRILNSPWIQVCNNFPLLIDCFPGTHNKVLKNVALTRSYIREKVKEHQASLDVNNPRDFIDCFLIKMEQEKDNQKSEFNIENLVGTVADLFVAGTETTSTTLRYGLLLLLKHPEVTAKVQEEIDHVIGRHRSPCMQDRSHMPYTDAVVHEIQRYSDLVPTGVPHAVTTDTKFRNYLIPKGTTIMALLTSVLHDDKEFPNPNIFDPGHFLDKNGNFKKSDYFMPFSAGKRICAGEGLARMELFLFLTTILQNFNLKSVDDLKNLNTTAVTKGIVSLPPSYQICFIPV
CYP3A4, sequence (P08684 whole entry): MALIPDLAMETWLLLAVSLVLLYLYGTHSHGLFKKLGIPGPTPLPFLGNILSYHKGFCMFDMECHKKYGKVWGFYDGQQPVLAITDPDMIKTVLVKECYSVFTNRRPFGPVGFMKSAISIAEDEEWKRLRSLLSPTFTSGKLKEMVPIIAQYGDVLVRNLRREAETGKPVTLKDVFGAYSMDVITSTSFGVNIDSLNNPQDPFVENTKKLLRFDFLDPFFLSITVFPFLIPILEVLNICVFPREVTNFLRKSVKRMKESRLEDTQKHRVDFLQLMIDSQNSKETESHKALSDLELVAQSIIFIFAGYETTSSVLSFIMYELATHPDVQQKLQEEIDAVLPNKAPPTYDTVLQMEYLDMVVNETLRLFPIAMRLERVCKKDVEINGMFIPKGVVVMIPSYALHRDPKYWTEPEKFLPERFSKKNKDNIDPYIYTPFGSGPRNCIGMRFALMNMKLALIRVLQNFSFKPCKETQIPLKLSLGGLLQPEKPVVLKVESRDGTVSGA

Turning to `CC1(C)CCC(C)(C)c2cc(NC(=O)c3ccc(C(=O)O)cc3)ccc21`, the CYP26A1/CYP26B1 in data set [1] is 1.8.

As for `CC1(C)CCC(C)(C)c2cc(C(=O)Nc3ccc(C(=O)O)cc3)ccc21`, in data set [1], the CYP26A1/CYP26B1 was 2.5.

As for `C/C(=C\c1ccc(C(=O)O)cc1)c1ccc2c(c1)C(C)(C)CCC2(C)C`, the CYP26A1/CYP26B1 in data set [1] was 1.1.

Consider `CC1(C)CCC(C)(C)c2cc(C(=O)COc3ccc(C(=O)O)cc3)ccc21`, for which, in data set [1], the CYP26A1/CYP26B1 is reported as 4.

In the case of `CC1(C)CCC(C)(C)c2cc(C(O)COc3ccc(C(=O)O)cc3)ccc21` (stereo not shown), the CYP26A1/CYP26B1 in data set [1] is listed as 2.

On to `CC1(C)CCC(C)(C)c2cc(/C(COc3ccc(C(=O)O)cc3)=N\O)ccc21`, for which the CYP26A1/CYP26B1 in data set [1] was found to be 3.

For the molecule `CC1(C)C(=O)C(C)(C)c2cc(C(=O)Nc3ccc(C(=O)O)cc3)ccc21`, the CYP26A1/CYP26B1 in data set [1] is 0.6.

`CC1(C)CCSc2ccc(C#Cc3ccc(C(=O)O)cn3)cc21`: the CYP26A1/CYP26B1 in data set [1] was 47.

Regarding `CC1(C)CCC(C)(C)c2cc(C#Cc3ccc(C(=O)O)cc3)ccc21`, in data set [1], the CYP26A1/CYP26B1 turned out to be 9.

Turning to `CCOC(=O)c1ccc(C#Cc2ccc3c(c2)C(C)(C)CCS3)nc1`, the inhibition at 100 µM in data set [1] was found to be 15%.

`COC(=O)c1ccc(OCC(=O)c2ccc3c(c2)C(C)(C)CCC3(C)C)cc1`: the inhibition at 100 µM in data set [1] turned out to be 15%.

As for `COC(=O)c1ccc(OC/C(=N/O)c2ccc3c(c2)C(C)(C)CCC3(C)C)cc1`, the CYP26A1/CYP26B1 in data set [1] was determined as 8.

As to `COC(=O)c1ccc(OC/C(=N\O)c2ccc3c(c2)C(C)(C)CCC3(C)C)cc1`, the CYP26A1/CYP26B1 in data set [1] was determined as 7.

For the molecule `C=C(c1ccc(C(=O)O)cc1)c1cc2c(cc1C)C(C)(C)CCC2(C)C`, the pIC50 in data set [1] (setting [9]) is 4.91; in data set [2] (setting [10]), 5.40.

Turning to `CC1(C)CCC(C)(C)c2cc(C3(c4ccc(C(=O)O)cc4)SCCS3)ccc21`, the pIC50 in data set [1] (setting [11]) was 5.89; in data set [2] (setting [12]) it was 5.96.

On to `CC1(C)CCC(C)(C)c2cc(C3(c4ccc5cc(C(=O)O)ccc5c4)OCCO3)ccc21`, for which the results for the pIC50 in data set [1] (setting [11]) and in data set [2] (setting [12]) were 6.96 and 5.99, respectively.

Regarding `COc1ccc(-c2ccc(CCC(=O)O)cc2)cc1C12CC3CC(CC(C3)C1)C2`, the pIC50 in data set [2] (Table 5, read-out: CYP26B1) is 6.29.

Regarding `O=C(O)CCc1ccc(-c2ccc(O)c(C34CC5CC(CC(C5)C3)C4)c2)cc1`, the pIC50 in data set [1] (Table 5, read-out: CYP26A1) is 6.50; in data set [2] (Table 5, read-out: CYP26B1) it was 6.52.

Turning to `COc1ccc(-c2ccc(/C=C/C(=O)O)cc2)cc1C12CC3CC(CC(C3)C1)C2`, the pIC50 is less than 4.60 in data set [1] (Table 5, read-out: CYP26A1) and less than 4.60 in data set [2] (Table 5, read-out: CYP26B1).

As for `COc1ccc(Nc2ccc(/C=C/C(=O)O)cc2)cc1C12CC3CC(CC(C3)C1)C2`, the pIC50 in data set [1] (Table 5, read-out: CYP26A1) is 6.14; in data set [2] (Table 5, read-out: CYP26B1) it was 7.06.

Regarding `O=C(O)/C=C/c1ccc(Nc2ccc(O)c(C34CC5CC(CC(C5)C3)C4)c2)cc1`, the pIC50 in data set [1] (Table 5, read-out: CYP26A1) is 6.63; in data set [2] (Table 5, read-out: CYP26B1), 7.02.

As for `COc1ccc(Nc2ccc(CCC(=O)O)cc2)cc1C12CC3CC(CC(C3)C1)C2`, the pIC50 was 7.29 in data set [1] (Table 5, read-out: CYP26A1) and 7.29 in data set [2] (Table 5, read-out: CYP26B1).

`O=C(O)CCc1ccc(Nc2ccc(O)c(C34CC5CC(CC(C5)C3)C4)c2)cc1`: the pIC50 in data set [1] (Table 5, read-out: CYP26A1) is 5.76; in data set [2] (Table 5, read-out: CYP26B1), 6.97.

Turning to `CC1(C)CCC(C)(C)c2cc(C3(c4ccc(CCC(=O)O)cc4)OCCO3)ccc21`, the pIC50 in data set [1] (Table 5, read-out: CYP26A1) is 6.47; in data set [2] (Table 5, read-out: CYP26B1), 4.84.

On to `CC1(C)CCC(C)(C)c2cc(C3(c4ccc(/C=C/C(=O)O)cc4)SCCS3)ccc21`, for which the pIC50 in data set [1] (Table 5, read-out: CYP26A1) is 8.22; in data set [2] (Table 5, read-out: CYP26B1) it was 5.36.

Consider `CC1(C)CCC(C)(C)c2cc(Cc3ccc(CCC(=O)O)cc3)ccc21`, for which the pIC50 in data set [1] (Table 5, read-out: CYP26A1) is less than 5.00; in data set [2] (Table 5, read-out: CYP26B1) it was 5.78.

In the case of `CC1(C)CCC(C)(C)c2cc(C3(c4ccc(/C=C/C(=O)O)cc4)OCCO3)ccc21`, the pIC50 was 6.62 in data set [1] (Table 5, read-out: CYP26A1) and less than 5.00 in data set [2] (Table 5, read-out: CYP26B1).

On to `CC1=C(/C=C/C(C)=C\C=C\C(C)=C\C(=O)O)C(C)(C)CCC1` [Example 9-cis-RA, 9-cis-RA], for which, in data set [3], the “Vmax for 9-cis-4-OH-RA formation by CYP26B1” value was 3.6 pmol/min/pmol P450 and the “fold greater Km than atRA for CYP26B1” value is 50 fold. In data set [3] (from Km and Vmax), this molecule came in with an intrinsic clearance of 6.5 µL/min. The Km in data set [3] (read-out: Km for 9-cis-4-OH-RA formation by CYP26B1, substrate 9-cis-RA 50-1000 nM, 5 min) was 0.555 µM.

Regarding `CC(C(c1ccc(Nc2nc3ccccc3s2)cc1)n1ccnc1)N(C)C` (stereo not shown) [Example R116010, R116010], the results for the pIC50 in data set [4] (bound stated), in data set [4] (setting [13]) and in data set [6] were less than 6.00, 5.75 and less than 6.00, respectively. Further, the “Inhibition of CYP3A4 (in words)” value in data set [5] is on record as “potent CYP3A4 inhibitors”. Also, in data set [6], the half-inhibitory concentration (IC50) turned out to be 5760 nM.

As for `CC1=C(/C=C/C(C)=C/C=C/C(C)=C/C(=O)O)C(C)(C)CCC1` [atRA, all-trans-retinoic acid], the Km in data set [3] (read-out: Km of atRA for CYP26B1) was determined as 0.019 µM.

For `CC1(C)CCC(C)(C)c2cc(C3(c4ccc(C(=O)O)cc4)OCCO3)ccc21` [drawing 145], the pIC50 in data set [1] (setting [9]) was 5.48; in data set [2] (setting [10]) it was 4.85.

For the molecule `CC1(C)CCC(C)(C)c2cc(C3(c4ccc5cc(C(=O)O)ccc5c4)SCCS3)ccc21` [drawing 146], the results for the pIC50 in data set [1] (setting [9]) and in data set [2] (setting [10]) were 7.21 and 5.99, respectively.

Turning to `CC1(C)CCC(C)(C)c2cc(C3(c4ccc(C(=O)O)cc4)OCCO3)ccc21` [drawing 148], the pIC50 in data set [1] (setting [11]) was 5.11; in data set [2] (setting [12]), 4.90.

Take `CC1(C)CCC(C)(C)c2cc(C3(c4ccc5cc(C(=O)O)ccc5c4)SCCS3)ccc21` [drawing 152]: the pIC50 in data set [1] (setting [11]) is 7.21.

On to `Clc1cccc(C(c2ccc3[nH]cnc3c2)n2ccnc2)c1` (stereo not shown) [liarozole], for which the pIC50 in data set [2] (Table 5, read-out: CYP26B1) was 7.74. In addition, the “Inhibition of CYP2C8 (in words)” value in data set [4] (pooled human liver microsomes) is “inhibited CYP2C8 potently”. Besides, the pIC50 in data set [4] (setting [13]) was 6.32. Besides, the “Inhibition of CYP3A4 (in words)” value in data set [5] is given as “weak inhibitor”. In addition, the “effect on concentration of atRA in vivo” value in data set [7] is listed as “increase the concentration of atRA in vivo”. For the same molecule, in data set [8], the “inhibition of other cytochromes of steroid biosynthesis” value was “also inhibits other cytochromes involved in the biosynthetic pathways of testicular, ovarian and adrenal steroids”. In data set [6], the “Inhibition of CYP2C9 (in words)” value was “weak inhibitor” and the IC50 came out at 1630 nM.

Consider `CCC(CC)[C@H](c1ccc(Nc2nc3ccccc3s2)cc1)n1cncn1` [talarozole, (R)—N-[4-[2-ethyl-1-(1H-1,2,4-triazol-1-yl)butyl]phenyl]-2-benzo-thiazolamine], for which the pIC50 in data set [1] (Table 5, read-out: CYP26A1) is 8.29; in data set [2] (Table 5, read-out: CYP26B1), 9.34; in data set [4] (setting [13]), 6.66. Moreover, the “Inhibition of CYP2C8 (in words)” value in data set [4] (pooled human liver microsomes) is reported as “nanomolar affinity”. Also, the “Inhibition of CYP3A4 (in words)” value in data set [5] was “nanomolar affinity”. The “effect on concentration of atRA in vivo” value in data set [7] was “increase the concentration of atRA in vivo”. Moreover, the “Inhibition of CYP2C9 (in words)” value in data set [6] is recorded as “nanomolar affinity”. In addition, the IC50 in data set [6] worked out at 680 nM.
